Source: patent US9149450B2, “Ischemia/reperfusion protection compositions and methods of using” (priority 2007, dated 2015)

Tests used:
[1] = tested on: rats subjected to 60% blood loss; assay: Rat hemorrhagic shock, 60% blood loss (Example 3); type: in vivo
Description: Rats infused with ketone bodies were subjected to 60% blood loss for at least 1 hour, followed by return of the shed blood. Endpoint measures of neuroprotection were quantitative analysis of neuronal survival and apoptosis in cortex, hippocampus and cerebellum as well as neurologic function exam scores. The objective was to determine the effectiveness of the D-form of beta-hydroxybutyrate (D-BHB) in conjunction with melatonin in protecting the brain from ischemia and providing protection from reperfusion injury after blood return.
The goal of the following experiments was to maintain 60% blood loss for at least three hours using a minimal amount of fluid in order to maintain viability. Sixty-percent blood loss was calculated by using the equation: Total blood volume=Animal body weight×0.06. A bolus volume of 1 ml ischemia/reperfusion protection composition per kilogram of animal body weight was given to animals after approximately 40% blood loss. Some animals only received a single 1 ml/kg bolus, while other animals received a slow infusion (100 μl/hr) to imitate an intravenous drip of solution after the bolus was given. […]
Once rats were fully anesthesized and stabilized for a 20 min period, blood loss was begun. […] Temperature was monitored with a rectal probe. […] Animal death was recorded when blood pressure, respiration, and precordial movement ceased (see FIG. 9 for a timeline). […]

[2] = tested on: hibernating ground squirrels; settings: in vivo, ip

SMILES: C[C@@H](O)CC(=O)O [D-BHB, D-beta-hydroxybutyrate]
- survival compared with 4 M NaCl ([1]; 60% blood loss, same osmolarity, ambient temperature drift): survived longer
- survival compared with NaCl, bolus followed by infusion ([1]; bolus then 100 μl/hr infusion, p-value <0.016): lived significantly longer

SMILES: [13CH3][C@@H](O)[13CH2]C(=O)O [^13C-D-BHB, [2,4-^13C]D-beta-hydroxybutyrate]
- transport into the heart during hibernation [2]: efficiently transported into the heart
